Measured values: publication PMC3576842 (Cancer discovery, 2012)
Entries after “also recorded” stand apart in the source; their conditions may differ.

What was measured:
[1] = test system: HCC827 cells; assay: High-throughput tumor cell line screening / cell viability assay; assay type: cell-based, human
[2] = test system: PC-9 cells; assay: as above; assay type: cell-based, human; conditions: for effect on growth: even at high concentrations
[3] = target: recombinant EGFR wild-type (Homo sapiens, UniProt P00533); assay: EGFR autophosphorylation assay; assay type: biochemical
[4] = target: EGFR L858R/T790M in NR6 cells (Homo sapiens, UniProt P00533, L858R/T790M); assay: Ligand-induced; assay type: cell-based; conditions: 16 hr, TGF-α 15 min
[5] = target: recombinant EGFR T790M (Homo sapiens, UniProt P00533, T790M); assay: EGFR autophosphorylation assay; assay type: biochemical; conditions: for inhibition of EGFR T790M autophosphorylation: ATP, 15 min; for concentrations as low as which inhibit EGFR T790M autophosphorylation: EGFR T790M mutants
[6] = target: wild-type EGFR in NR6 cells (Homo sapiens, UniProt P00533); assay: Ligand-induced; assay type: cell-based; conditions: for inhibition of ligand-induced EGFR phosphorylation: NR6 wild-type EGFR, TGF-α
[7] = test system: PC-9/ER xenografts (EGFR del E746_A750/T790M); assay: PC-9/ER xenograft study; conditions: for tumor growth: daily oral gavage for 21 days, PKC412 100 mg/kg, WZ4002 25 mg/kg
[8] = target: recombinant EGFR L858R/T790M (Homo sapiens, UniProt P00533, L858R/T790M); assay: EGFR autophosphorylation assay; assay type: biochemical; conditions: ATP, 15 min
[9] = target: EGFR del E746_A750/T790M in NR6 cells (Homo sapiens, UniProt P00533, DEL746-750/T790M); assay: Ligand-induced; assay type: cell-based; conditions: 16 hr, TGF-α 15 min
[10] = PKC412 225 mg/d for 28 days, solid tumor tissues; cited from earlier work
[11] = in vivo; conditions: athymic nude, mouse, plasma, oral, 100 mg/kg
[12] = test system: NCI-H1975 tumor xenografts (EGFR L858R/T790M); assay: NCI-H1975 xenograft study; assay type: in vivo, Balb/c nude mice
[13] = test system: lung adenocarcinomas driven by EGFR L858R/T790M; assay: Genetically engineered NSCLC model; assay type: in vivo, mice
[14] = target: EGFR del E746_A750/T790M in erlotinib-resistant PC-9 cells (Homo sapiens, UniProt P00533, DEL746-750/T790M); assay: Drug wash-out assay; assay type: cell-based
[15] = test system: NCI-H1975 cells (EGFR L858R/T790M); assay: Cell viability assay; assay type: cell-based, human; conditions: read-out: IC50 cell viability; 72 hr; L858R/T790M mutant line
[16] = test system: HCC827 cells (EGFR del E746_A750); assay: EGFR signaling and apoptosis immunoblotting in HCC827 cells; assay type: cell-based, human
[17] = test system: PC-9 cells (EGFR del E746_A750); assay: EGFR signaling and apoptosis immunoblotting in PC-9 cells; assay type: cell-based, human
[18] = test system: EGFR delE746_A750 mutant lines (PC-9, HCC827, HCC4006); assay: Cell viability assay; assay type: cell-based, human; conditions: read-out: IC50 cell viability; 72 hr; 3 NSCLC lines with EGFR delE746_A750
[19] = test system: PC-9/ER cells; assay: Anti-proliferative response of erlotinib-resistant PC-9 clone; conditions: 10 μM erlotinib
[20] = human, in vivo; cited from earlier work
[21] = 1 μM, 72 hr, strong sensitivity defined as greater than 70% growth suppression

## CN(C)CCCn1cc(C2=C(c3c[nH]c4ccccc34)C(=O)NC2=O)c2ccccc21 [bis-indolylmaleimide I]
[1]; even at high concentrations
  effect on growth: failed to detectably affect growth
[2]
  effect on growth: failed to detectably affect growth

## C=CC(=O)Nc1cccc(Oc2nc(Nc3ccc(N4CCN(C)CC4)cc3OC)ncc2Cl)c1 [WZ4002]
[3]; ATP, 15 min
  inhibition of wild-type EGFR autophosphorylation: ineffective
[3]; autophosphorylation
  concentrations with detectable inhibition of wild-type EGFR: above 1 micromolar
[4]
  inhibition of ligand-induced EGFR phosphorylation: similarly potent ability to inhibit
[5]
  inhibition of EGFR T790M autophosphorylation: potent suppression
  concentrations as low as which inhibit EGFR T790M autophosphorylation: 10 nM
[6]
  inhibition of ligand-induced EGFR phosphorylation: modestly affected
[7]
  tumor growth: efficiently inhibited
[8]
  inhibition of EGFR L858R/T790M autophosphorylation: potent suppression
[9]
  inhibition of ligand-induced EGFR phosphorylation: most potent inhibitor

## CO[C@@H]1[C@H](N(C)C(=O)c2ccccc2)C[C@H]2O[C@]1(C)n1c3ccccc3c3c4c(c5c6ccccc6n2c5c31)C(=O)NC4 [PKC412]
[10]
  tissue concentration (median): 593 nM
[4]
  inhibition of ligand-induced EGFR phosphorylation: similarly potent ability to inhibit
[11]
  Cmax: 2910 nM
  concentration at 24 h: 659 nM
[5]
  inhibition of EGFR T790M autophosphorylation: potently inhibit
  concentrations as low as which inhibit EGFR T790M autophosphorylation: 3 to 30 nM
[12]; 4 hours after the last dosing
  EGFR signaling in tumors after the last dosing: effective suppression of EGFR signaling
[12]; daily for 3 days, PKC412 100 or 200 mg/kg, gefitinib 100 mg/kg
  suppression of phospho-EGFR and phospho-AKT in tumors: Significant suppression
[12]; daily oral 100 mg/kg
  body weight loss: no significant body weight loss
[12]; day 12, daily oral PKC412 100 mg/kg
  tumor growth suppression compared to control-treated animals: 50%
[6]
  inhibition of ligand-induced EGFR phosphorylation: not significantly inhibited
[6]; PKC412 versus irreversible EGFR inhibitors
  less activity against wild-type EGFR in drug-treated cells than irreversible EGFR inhibitors: 500 fold
[7]; Day 21, 4 hours after the last dosing
  EGFR signaling in tumors after the last dosing: effective suppression of EGFR signaling
[7]; daily oral 100 mg/kg, 21 days
  body weight loss: no significant body weight loss
[7]
  tumor growth: tumors began to regress; also recorded: significant tumor regression
[8]
  inhibition of EGFR L858R/T790M autophosphorylation: potently inhibit
[13]; 4 weeks of PKC412 treatment
  weight loss: No significant weight loss
[13]; 4 weeks of treatment
  tumor growth: growth inhibited for the first two weeks of treatment
[13]; treated for 5 days
  phosphorylation of EGFR L858R/T790M in tumors: significant decrease in phosphorylation
[14]
  nature of inhibition (recovery of pEGFR after wash-out): reversible

## Cn1c2ccccc2c2c3c(c4c5ccccc5n(CCC#N)c4c21)CNC3=O [Gö6976]
[15]
  IC50: ~800 nM
[1]; [21]
  growth inhibition in cell line screen: strongly growth inhibited
[16]; HCC827
  apoptosis (PARP cleavage): promotes apoptosis
[16]; HCC827, 1 μM
  suppression of EGFR signaling: suppressed EGFR signaling as efficiently as erlotinib
[17]; PC-9
  apoptosis (PARP cleavage): promotes apoptosis
[17]; PC-9, 1 μM
  suppression of EGFR signaling: suppressed EGFR signaling as efficiently as erlotinib
[2]; [21]
  growth inhibition in cell line screen: strongly growth inhibited
[18]
  IC50: 100 to 200 nM

## CN1CCN(c2nc(C3=C(c4c[nH]c5ccccc45)C(=O)NC3=O)c3ccccc3n2)CC1 [sotrastaurin]
[2]
  effect on growth: failed to detectably affect growth

## C#Cc1cccc(Nc2ncnc3cc(OCCOC)c(OCCOC)cc23)c1 [erlotinib]
[19]
  anti-proliferative response: no anti-proliferative response

## CO[C@@H]1[C@H](N(C)C(=O)c2ccccc2)C[C@H]2O[C@]1(C)n1c3ccccc3c3c4c(c5c6ccccc6n2c5c31)C(=O)N[C@H]4O [CGP52421]
[20]
  plasma concentration of metabolite: 20000 to 25000 nM
